Source: patent publication US9517240B2, “Methods and compositions for cancer prevention and treatment” (THE REGENTS OF THE UNIVERSITY OF CALIFORNIA, priority 2006, dated 2016)
“Also recorded” adds a separate entry of the source. Blank lines part the entries; values can stand above or below the compound they belong to. Peptide text beside a SMILES is read from it. * marks the point of attachment. Cbz = O=C(OCc1ccccc1)*

Experiments:
PR-A [1] = assay: Inhibition of proteasome degradation: PR protein level in mouse MECs (western blotting); format: cell-based; conditions: 10 μM MG132 for 4 hr
Source text: (§1) MEC cultures from BRCA1^Δ11p53^Δ5&6 and p53^Δ5&6 mammary glands of two-month-old mice when MECs are histologically normal were created. The amount of PR protein, determined by western blotting, was 3-fold higher in BRCA1^Δ11p53^Δ5&6 than in p53^Δ5&6 MECs (FIG. 2D, lanes 1, 3). To further establish that PR protein stability is modulated by a proteasome pathway, MECs were exposing to MG132. PR-A was stabilized in p53^Δ5&6 but not in BRCA1^Δ11p53^Δ5&6 MECs (FIG. 2D, lanes 2, 4).
(§2) One day after plating, proliferating sub-confluent MECs or T47D cells were treated with 10 μM MG132 (BioMol Research Laboratories, Plymouth Meeting, Pa.) for 4 hr. Vehicle DMSO was added to the medium of untreated control cells. For the half-life study, 100 μg/ml of cyclohexamide (Sigma) was used and cells were harvested 0-6 hours after the addition of cyclohexamide. Cells were washed in PBS and protein lysates were prepared as described above.

PR-A [2] = assay: Inhibition of proteasome degradation: PR-A and ERα levels in T47D cells with siLuc or siBRCA1 (western blotting); format: cell-based, human
Protocol: To further test whether BRCA1 specifically affects PR stability, adenoviral siRNA-mediated knockdown of BRCA1 was introduced to T47D cells. […] In the absence of a ligand, PR-A was very stable and no significant differences were detected between siLuc and siBRCA1 knockdown cells (FIG. 3A, lanes 5, 6). The amount of PR-B was analyzed by immunoprecipitation followed by western blot (FIG. 8). Depletion of BRCA1 by adenoviral siRNA led to PR-A and PR-B accumulation.
as §2

[3] = system: BRCA1^Δ11p53^Δ5&6 conditional knockout mice (mammary tumors); assay: Pellet implantation and weekly monitoring for mammary tumor formation in BRCA1/p53 deficient mice; format: in vivo, mouse; conditions: for mammary tumorigenesis / tumor formation (in words): 35 mg/60 day constant release pellet
Protocol: (§3) As progesterone is a potent mitogen for BRCA1^Δ11p53^Δ5&6 MECs specifically it was tested whether blocking PR signaling by anti-progesterone will prevent or delay mammary carcinogenesis in BRCA1^Δ11p53^Δ5&6 conditional knockout mice. An anti-progesterone pellet containing 35 mg/60 days constant release mifepristone or placebo pellet was implanted into twelve 3- and two 4-month-old mice. Mice were monitored weekly for tumor formation. The median tumor latency of BRCA1^Δ11p53^Δ5&6 conditional knockout mice was 6.6 months (n=25) with complete penetrance (FIG. 4A). All control mice or placebo pellet treated mice developed palpable tumor by 8.7 or 5.2 months of ages (n=4), respectively. […] The effects of on ductal branching and alveolar expansion were determined using mammary gland whole mounts and histological sections. […] Only 33±7 ducts in an approximate area of 0.012 mm^2 were identified in-treated mice while 678±49 ducts were found in placebo pellet-treated mice. Dramatic inhibition of tumorigenesis was also seen with the implantation of 35 mg time release (60 day) pellets of CDB-2914. […] CDB-2914 shares structural similarity with mifepristone and binds competitively to PR with high affinity.
Nulliparous mature BRCA1^Δ11/p53^Δ5&6 female mice, age 14-20 weeks, were anesthetized and pellets containing either 35 mg/60-day constant release of mifepristone (M8046, Sigma, St. Louis, Mo.) or placebo pellets (Innovative Research of America, Sarasota, Fla.) were implanted in the lateral side of the neck. Mice were monitored weekly for mammary tumors.
This Example describes the early administration of Progesterone Receptor antagonists to mice with a BRCA1 mutation to prevent or delay the development of tumors.
An effective development window for prevention treatment has also been shown for RU-486 (data not shown). I would appear that the time window for treatment is important.

[4] = system: BRCA1^Δ11p53^Δ5&6 mammary glands; assay: Mammary gland whole mounts and histological sections: ductal branching and alveolar expansion; format: in vivo, mouse
Protocol: as §3
The mammary gland was removed and flattened on paraffin paper and fixed in Carnoy's fixative (60% of absolute ethanol, 30% CHCl3, 10% HOAc) for 3 hr. It was subsequently hydrated through a series of solutions with decreasing concentrations of ethanol, and stained in carmine solution (1 g carmine, 2.5 g aluminum potassium sulfate/500 ml of water) overnight. The gland was dehydrated through a series of solutions with increasing ethanol concentrations, 50-100%, washed in xylene twice, and mounted on a slide.

[5] = system: BRCA1^Δ11p53^Δ5&6 mammary glands; assay: Immunostaining for cleaved caspase 3 in treated mammary glands; format: in vivo, mouse; conditions: 3 wk or 5 wk post pellet implantation
PR-A [6] = biological target: T1, PR-A (Mus musculus, UniProt Q00175); assay: Determination of PR half-life in MECs with cyclohexamide and R5020; format: cell-based; conditions: 10 nM R5020, 100 μg/ml cyclohexamide
T1 construct: endogenous in cells; host or cells: primary mouse mammary epithelial cells (MECs) from p53 and BRCA1/p53 conditional knockout mammary glands
T1 sequence (Q00175 1-761 isoform Q00175-2): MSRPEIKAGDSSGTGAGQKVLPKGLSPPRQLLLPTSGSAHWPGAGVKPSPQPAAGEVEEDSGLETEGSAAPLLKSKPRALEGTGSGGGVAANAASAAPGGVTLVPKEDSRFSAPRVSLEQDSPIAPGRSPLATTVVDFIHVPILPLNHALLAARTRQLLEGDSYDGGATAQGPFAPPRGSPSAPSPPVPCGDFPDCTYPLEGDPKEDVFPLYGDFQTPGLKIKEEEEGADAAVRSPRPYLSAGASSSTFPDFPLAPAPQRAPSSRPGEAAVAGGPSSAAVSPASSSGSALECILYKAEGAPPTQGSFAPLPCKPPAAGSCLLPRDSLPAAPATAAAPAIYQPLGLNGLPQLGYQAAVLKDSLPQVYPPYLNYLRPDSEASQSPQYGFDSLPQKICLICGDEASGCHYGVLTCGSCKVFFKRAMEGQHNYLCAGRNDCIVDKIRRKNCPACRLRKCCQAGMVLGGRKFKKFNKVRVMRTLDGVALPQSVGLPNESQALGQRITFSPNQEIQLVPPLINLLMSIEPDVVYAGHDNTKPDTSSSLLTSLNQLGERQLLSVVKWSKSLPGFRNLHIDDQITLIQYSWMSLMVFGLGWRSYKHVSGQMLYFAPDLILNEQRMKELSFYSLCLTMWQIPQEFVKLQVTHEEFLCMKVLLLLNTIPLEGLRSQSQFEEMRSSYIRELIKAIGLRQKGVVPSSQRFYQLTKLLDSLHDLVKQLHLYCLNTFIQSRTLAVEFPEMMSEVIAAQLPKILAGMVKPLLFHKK
Source text: as §1, §2

[7] = system: BRCA1^Δ11p53^Δ5&6 conditional knockout mice (mammary tumors); assay: Pellet implantation and weekly monitoring for mammary tumor formation in BRCA1/p53 deficient mice; format: in vivo, mouse; conditions: 5 mg/60 days constant release pellet
PR = biological target: T2, PR (Homo sapiens, UniProt P06401); conditions: cited from earlier work
T2 sequence (P06401 1-933): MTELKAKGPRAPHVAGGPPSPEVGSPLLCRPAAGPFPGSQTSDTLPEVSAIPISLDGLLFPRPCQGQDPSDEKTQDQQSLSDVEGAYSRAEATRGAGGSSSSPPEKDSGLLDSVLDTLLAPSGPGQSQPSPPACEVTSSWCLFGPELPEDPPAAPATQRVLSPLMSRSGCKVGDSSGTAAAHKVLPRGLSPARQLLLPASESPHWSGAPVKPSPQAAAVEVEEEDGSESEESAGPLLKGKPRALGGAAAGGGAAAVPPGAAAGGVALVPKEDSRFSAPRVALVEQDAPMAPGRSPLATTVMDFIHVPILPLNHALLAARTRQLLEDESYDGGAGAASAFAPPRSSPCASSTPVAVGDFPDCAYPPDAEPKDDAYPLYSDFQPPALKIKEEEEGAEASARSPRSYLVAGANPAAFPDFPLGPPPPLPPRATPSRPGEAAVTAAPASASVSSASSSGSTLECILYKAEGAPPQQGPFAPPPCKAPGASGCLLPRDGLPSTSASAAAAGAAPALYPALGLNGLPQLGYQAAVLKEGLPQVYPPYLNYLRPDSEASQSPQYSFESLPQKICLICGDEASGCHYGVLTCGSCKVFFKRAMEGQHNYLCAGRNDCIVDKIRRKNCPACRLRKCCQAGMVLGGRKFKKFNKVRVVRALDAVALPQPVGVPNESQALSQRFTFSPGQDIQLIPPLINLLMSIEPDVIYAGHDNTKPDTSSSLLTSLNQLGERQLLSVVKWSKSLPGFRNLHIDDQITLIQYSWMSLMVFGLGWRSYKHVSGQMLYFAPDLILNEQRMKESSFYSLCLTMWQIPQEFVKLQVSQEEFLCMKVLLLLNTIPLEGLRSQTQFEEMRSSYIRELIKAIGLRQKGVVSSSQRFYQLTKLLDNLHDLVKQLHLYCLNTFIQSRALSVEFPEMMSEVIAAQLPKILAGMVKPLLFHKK

[8] = system: mammary epithelial cells (MECs); assay: Hormone-induced proliferation of mammary epithelial cells in ovariectomized mice (BrdU incorporation); format: in vivo, mouse; conditions: 1 mg progesterone daily for 3 days
Protocol: MEC proliferation peaks at the estrous phase when progesterone level is highly elevated. To assess the contribution of steroid hormones to MECs proliferation an ovariectomy was performed to deplete circulating estrogen and progesterone. Since PR is one of the downstream target genes of ER, progesterone activity was targeted. Two weeks after ovariectomy mice were treated with progesterone daily for 3 days followed by BrdU pulse labeling. In control vehicle treated mice, no BrdU-positive MECs were found in ovariectomized wt, and p53^Δ5&6 gland, but ducts containing one or two BrdU-positive cells were detected in BRCA1^Δ11p53^Δ5&6 mammary glands (FIG. 2A). Elevated proliferation seen under ovarian hormone depletion is related to the ligand-independent activation of PR in BRCA1-deficient cells. Importantly, a higher number of BrdU-positive MECs was found in BRCA1^Δ11p53^Δ5&6 mammary glands upon exposure to progesterone; ducts containing up to 6 BrdU-positive cells were identified (FIG. 2A).
Two weeks before steroid hormone treatment animals were bilaterally ovariectomized Mammary glands were stimulated to proliferate with daily subcutaneous injections of either 1 μg of estradiol (E2758, Sigma, St. Louis, Mo.) or 1 mg of progesterone (P8783, Sigma, St. Louis, Mo.) for 3 days. Untreated mice were used as controls.

SMILES: CC(C)C[C@@H](C=O)NC(=O)[C@H](CC(C)C)NC(=O)[C@H](CC(C)C)NC(=O)OCc1ccccc1 [MG132] (Cbz-Leu-Leu-Leu-aldehyde)
PR-A stabilization (PR-A [1]; BRCA1^Δ11p53^Δ5&6 MECs): not
PR-A stabilization (PR-A [1]; p53^Δ5&6 MECs): stabilized
PR-A density (western blot) (PR-A [2]; control siLuc infected cells, with R5020, 1.0 without MG132): 3.8
PR-A density (western blot) (PR-A [2]; siBRCA1 infected cells, with R5020, 3.2 without MG132): 3.6
ERα stabilization (PR-A [2]; siLuc or siBRCA1 knockdown cells): stabilized to a similar extent

SMILES: CC#C[C@]1(O)CC[C@H]2[C@@H]3CCC4=CC(=O)CCC4=C3[C@@H](c3ccc(N(C)C)cc3)C[C@@]21C [mifepristone]
mammary tumorigenesis / tumor formation (in words) ([3]; BRCA1/p53 deficient mice): effective prevention of tumor formation; also recorded: prevents tumorigenesis; also recorded: inhibits mammary tumorigenesis
palpable tumors at 12 months of age ([3]; 35 mg/60 days constant release pellet implanted at 3-4 months, n=14, BRCA1^Δ11p53^Δ5&6 mice): no palpable tumors were detected
side branches of mammary glands ([4]; five weeks of treatment, 35 mg/60-day pellet): substantial reduction
ducts in an approximate area of 0.012 mm^2 ([4]; five weeks of treatment, 35 mg/60-day pellet, placebo 678±49): 33±7 ducts
apoptotic cells (cleaved caspase 3) [5]: few apoptotic cells

PR-A present at 6 hr post R5020 treatment (PR-A [6]; BRCA1^Δ11p53^Δ5&6 MECs): 90%
half-life of PR-A (PR-A [6]; p53^Δ5&6 MECs): 2.8 h
SMILES: CCC(=O)[C@@]1(C)CC[C@H]2[C@@H]3CCC4=CC(=O)CCC4=C3CC[C@@]21C [R5020]

SMILES: CC(=O)O[C@]1(C(C)=O)CC[C@H]2[C@@H]3CCC4=CC(=O)CCC4=C3[C@@H](c3ccc(N(C)C)cc3)C[C@@]21C [CDB-2914, 17α-acetoxy-11β-(4-N,N-dimethylaminophenyl)-19-norpregna-4,9-diene-3,20-dione]
inhibition of tumors compared to control implants ([3]; 35 mg time release (60 day) pellet, BRCA1/p53 deficient mice, age 14 weeks, n=4): 100%
mammary tumorigenesis / tumor formation (in words) ([3]; BRCA1/p53 deficient mice): has a preventative effect; also recorded: inhibits mammary tumorigenesis; also recorded: effective in delaying mammary tumors
development of palpable tumors ([3]; two-month-release pellet implanted before 14 weeks of age, n=4): delayed development of palpable tumors
development of palpable tumors ([3]; two-month-release pellet placed after 15 wks): failed to do so
ductal branching of the mammary gland ([4]; Brca1^f/fp53^f/fCrec mouse, 7.0-month-old, 35 mg/60 day pellet at 14-wk-old): inhibits ductal branching
efficacy in tumor prevention (in words) [7]: failed to show any efficacy
other receptor properties (PR): anti-glucorcorticoid and anti-androgen properties
binding to PR (PR; competitive): high affinity

SMILES: CC(=O)[C@H]1CC[C@H]2[C@@H]3CCC4=CC(=O)CC[C@]4(C)[C@H]3CC[C@]12C [progesterone]
BrdU-positive cells per duct ([8]; BRCA1^Δ11p53^Δ5&6 mammary glands): up to 6
BrdU-positive cells in the majority of MECs ([8]; wt or p53^Δ5&6 mammary gland): did not contain BrdU-positive cells
